Results: PMC5766630, “Non-estrogenic Xanthohumol Derivatives Mitigate Insulin Resistance and Cognitive Impairment in High-Fat Diet-induced Obese Mice” (Scientific Reports, 2018)

What was measured:
[1] = molecular target: T1, full-length purified human estrogen receptor ERα (Homo sapiens, UniProt P03372); experiment: ERα competitive radiometric binding assay; settings: for RBA ERα (relative binding affinity): RBA = IC50[estradiol]/IC50[compound] × 100, estradiol = 100, 2 nM [3H]-estradiol tracer, 18–24 h at 0 °C
T1 construct: full-length purified human estrogen receptors ERα and ERβ
T1 sequence (P03372 1-595): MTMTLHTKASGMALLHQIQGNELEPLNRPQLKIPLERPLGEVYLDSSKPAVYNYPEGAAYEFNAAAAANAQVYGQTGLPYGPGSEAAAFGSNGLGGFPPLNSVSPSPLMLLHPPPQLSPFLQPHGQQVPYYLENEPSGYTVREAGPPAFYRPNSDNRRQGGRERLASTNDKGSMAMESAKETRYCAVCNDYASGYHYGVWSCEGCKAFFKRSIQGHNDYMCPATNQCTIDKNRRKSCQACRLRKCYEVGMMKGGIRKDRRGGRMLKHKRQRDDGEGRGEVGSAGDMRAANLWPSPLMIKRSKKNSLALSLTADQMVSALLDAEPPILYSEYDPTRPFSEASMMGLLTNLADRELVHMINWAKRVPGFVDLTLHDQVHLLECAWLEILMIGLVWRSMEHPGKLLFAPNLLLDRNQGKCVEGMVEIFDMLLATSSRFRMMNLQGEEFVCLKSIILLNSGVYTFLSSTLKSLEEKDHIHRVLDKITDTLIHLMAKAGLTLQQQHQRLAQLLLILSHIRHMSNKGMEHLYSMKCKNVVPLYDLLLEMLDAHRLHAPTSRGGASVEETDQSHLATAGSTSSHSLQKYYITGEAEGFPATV
Experimental: The receptors and ligands were incubated for 18–24 h at 0 °C and then the receptor–ligand complexes separated using hydroxyapatite (BioRad, Hercules, CA, USA).

[2] = molecular target: T2, full-length purified human estrogen receptor ERβ (Homo sapiens, UniProt Q92731); experiment: ERβ competitive radiometric binding assay; settings: for RBA ERβ (relative binding affinity): RBA = IC50[estradiol]/IC50[compound] × 100, estradiol = 100, 2 nM [3H]-estradiol tracer, 18–24 h at 0 °C
T2 construct: full-length purified human estrogen receptors ERα and ERβ
T2 sequence (Q92731 whole entry): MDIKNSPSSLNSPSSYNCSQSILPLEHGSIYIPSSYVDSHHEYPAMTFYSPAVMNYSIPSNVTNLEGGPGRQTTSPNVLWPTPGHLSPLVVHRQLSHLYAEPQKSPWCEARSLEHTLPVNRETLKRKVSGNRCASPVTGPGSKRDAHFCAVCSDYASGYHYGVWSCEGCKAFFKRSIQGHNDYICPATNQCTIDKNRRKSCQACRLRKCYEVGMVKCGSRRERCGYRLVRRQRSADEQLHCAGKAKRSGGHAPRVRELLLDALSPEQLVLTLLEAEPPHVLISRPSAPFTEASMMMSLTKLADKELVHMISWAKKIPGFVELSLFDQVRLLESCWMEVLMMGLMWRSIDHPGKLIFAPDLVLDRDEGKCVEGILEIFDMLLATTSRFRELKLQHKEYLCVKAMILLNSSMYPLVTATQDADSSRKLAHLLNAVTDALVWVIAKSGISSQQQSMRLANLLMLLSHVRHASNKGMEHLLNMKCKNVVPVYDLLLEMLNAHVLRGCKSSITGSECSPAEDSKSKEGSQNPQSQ
Experimental: . The receptors and ligands were incubated for 18–24 h at 0 °C and then the receptor–ligand complexes separated using hydroxyapatite (BioRad, Hercules, CA, USA). […]

[3] = system: progesterone receptor (PGR) expression in MCF-7 cells; experiment: Progesterone receptor (PGR) gene expression in MCF-7 cells, real-time PCR; format: cell-based, human; settings: 20 h; estradiol 1 and 10 nM; 8-PN, XN, DXN, TXN 0.2, 1 and 5 μM; vs 0.1% ethanol
Experimental: MCF-7 cells (American Type Culture Collection, Manassas, VA, USA) were cultured in DMEM (Corning Life Sciences, Tewksbury, MA, USA) supplemented with 10% fetal bovine serum (Corning Life Sciences) and 100 μg/ml penicillin/streptomycin (Invitrogen, Carlsbad, CA, USA). For estrogen-free experiments, cells were seeded in phenol-free DMEM (Gibco/Life Technologies, Grand Island, NY, USA) plus 10% charcoal-dextran-treated FBS (Corning Life Sciences) at 5 × 10^5 cells/well of a 6-well plate. […] Total RNA was isolated using TRIzol (Invitrogen) and converted into cDNA using iScript (Bio-Rad, Hercules, CA, USA). Real-time PCR was performed in triplicate on a CFX-96 (Bio-Rad) using primer-probe assays (IDT Technologies, Coralville, IA, USA) and SsoAdvanced Universal Probes Supermix (Bio-Rad) to quantify progesterone receptor (PGR) and GAPDH levels. The ratio of PGR to GAPDH was calculated as 2^−ΔCt PGR/2^−ΔCt GAPDH. Data were analyzed using a one-way ANOVA (p < 0.05 was considered statistically significant) and a post-hoc Tukey’s multiple comparison test. Induction of the progesterone receptor in MCF-7 cells is one of the indices of estrogenicity of flavonoids such as 8-PN[94].

MCF-7 cells = experiment: MCF-7 cell proliferation, sulforhodamine B (SRB) assay; format: cell-based, human; settings: 0.001–1 µM, 48 h exposure, vs vehicle control
Experimental: The SRB assay has been used to study the effects of phytochemicals such as XN, DXN and 8-PN on cell proliferation of various cancer cell lines, including MCF-7 cells[91],[92]. SRB is a dye that binds to cellular proteins of adherent cells and the absorbance readings are a measure of the number of viable cells (cell mass) attached to the culture plate after incubation with the test compounds (samples) in comparison with vehicle control cells. The cell mass is then extrapolated as a measurement of cell viability and cell proliferation. Increased proliferation of MCF-7 cells is one of the measures of estrogenicity of phytochemicals. MCF-7 cells were plated at 10,000 cells/well in 96-well plates in DMEM medium containing 10% charcoal-stripped FBS and antibiotics. […] After incubation with the test compounds for 48 h, the cell culture medium was removed from each well of the 96-well plate and the cells were fixed for 1 h with 10% trichloroacetic acid. The cells on the plate were washed five with distilled water, air-dried, and then stained with SRB dye (0.4% w/v in 1% acetic acid). Excess dye was removed by washing the plate five times with 1% acetic acid. The plates were air-dried and the adsorbed dye was solubilized in 10 mM Tris buffer for 5 min on a shaker before reading the optical density (OD) at 565 nm. The percentage cell viability/proliferation was calculated as follows: (ODSample−ODZeroblank)/(ODControl−ODZeroblank)×100. Mean values and the coefficient of variation (CV) from six replicate wells were calculated and a one-way ANOVA was used to compare statistical differences between treated and control cells, with p < 0.05 as the level of significance.

C2C12 cells = experiment: Seahorse OCR and ECAR measurements (mitochondrial uncoupling); format: cell-based, mouse; settings: oligomycin 1 μM, C2C12 cells
Experimental: OCR and ECAR measurements were performed with a Seahorse XF 24 Analyzer (Agilent Technologies, Inc., Santa Clara, CA, USA). C2C12 cells were plated in culture medium at a density of 40,000 cells per well in a 24-well plate. The cells were then allowed to adhere for 24 h (37 °C, 5% CO2). Prior to the assay, the cells were washed with freshly prepared running medium consisting of Seahorse XF Assay medium (Agilent Technologies, Inc., Santa Clara, CA, USA), 10 mM glucose and 1 mM sodium pyruvate. The pH of the medium was adjusted to 7.4 with 1 M NaOH. The cells were then equilibrated for one hour at 37 °C without CO2. […] To overcome this problem, the test compounds were first dissolved in ethanol and the resulting solution was diluted 100-fold in treatment medium (9 parts XF media and 1 part 10% FBS media) which was added directly to cells. The treatment medium contained 1% FBS and after a further 10-fold dilution into the media in wells, only 0.1% FBS was present during OCR and ECAR measurements. The final concentrations in the wells were: 1 μM for oligomycin, and 5 μM for XN, DXN or TXN. The concentration of oligomycin and the cell density used were selected based on preliminary experiments. Ethanol was added to the control wells not to exceed a final concentration of 0.1% (vehicle control). OCR and ECAR were measured at 9-min intervals.
Seahorse data: to show a consistent baseline, OCR values (in pmol/min/mg protein) and ECAR values (in mpH/min/mg protein) for each value were divided, prior to statistical analysis, by the average of the four pre oligomycin treatment values (0, 8, 17, and 25 min) for the corresponding well and are shown as % pre oligomycin values. To account for repeated measures within wells over time, we utilized a repeated-measures-in-time design using ANOVA procedures in PROC MIXED (SAS). Fixed effects in the model were treatment (control, 5 μM XN, 5 μM DXN, and 5 μM TXN for the compound study), time (0, 8, 17, 25, 34, 43, 52, 60, 69, 78, 86, and 95 min), and their interaction. The random effect was the experiment (5 experiments for the compound study). To account for repeated measures within wells over time, a first order homogeneous variance-covariance matrix [AR(1)] was fitted for each well. Using the ESTIMATE statement, a priori contrasts were constructed by comparing the changes in compound treated cells from the last two time points prior to compound treatment (average 52 and 60 min) to the changes in control cells during the same time-period. This was carried out for each compound and dosage for 69, 78, 86, and 95 min separately and for all four time points combined. Results are shown in the text and the graphs as least squares means and their corresponding SEM (standard error of mean). […]

[4] = design: method as in PMID 17517853, PMID 20154334; settings: meta-analysis of 42 trials, p = 0.03; cited from earlier work

| SMILES | RBA ERα (relative binding affinity) [1] | RBA ERβ (relative binding affinity) [2] | induction of PGR expression [3] | other results |
| --- | --- | --- | --- | --- |
| CC(C)=CCc1c(O)cc(O)c2c1O[C@H](c1ccc(O)cc1)CC2=O [8-PN, 8-prenylnaringenin, reference compound] | 0.686 ± 0.18 | 2.42 ± 0.62 | statistically significant induction | fold greater affinity for ERα compared to XN, DXN, and TXN [1]: > 100 fold; fold greater affinity for ERβ compared to XN, DXN, and TXN [2]: > 100 fold; MCF-7 cell viability/proliferation at low concentrations (MCF-7 cells): induced cell proliferation |
| COc1cc(O)c(CC=C(C)C)c2c1C(=O)CC(c1ccc(O)cc1)O2 (centres unmarked) [IX, Isoxanthohumol, reference compound] | 0.0020 ± 0.0002 | 0.019 ± 0.004 | – | – |
| C[C@]12CC[C@@H]3c4ccc(O)cc4CC[C@H]3[C@@H]1CC[C@@H]2O [estradiol, 17β-estradiol, reference compound] | – | – | statistically significant induction | – |
| CC[C@H]1/C=C/C=C/C[C@@H](C)[C@H](O)[C@@](C)(O)C(=O)[C@@H](C)[C@H](O)[C@@H](C)C(=O)[C@@H](C)[C@H](O)[C@@H](C)/C=C/C(=O)O[C@@H]2[C@H](C)[C@H](CC1)O[C@]1(CC[C@H](C)[C@H](C[C@@H](C)O)O1)[C@H]2C [oligomycin, reference compound] | – | – | – | Increase in ECAR (C2C12 cells): 1.6 fold |
| CN(CCOc1ccc(CC2SC(=O)NC2=O)cc1)c1ccccn1 (centres unmarked) [rosiglitazone] | – | – | – | Increased risk of heart attack [4]: 43% |
